This note sets out measurements from the SangsterLogP compilation.

A short description of this data set: method code SF-AS, from DOI: 10.1021/bi00362a019, PMID: 3017413.
Turning to `CCN(CC)c1ccc(C=NN=C(N)N)cc1`, the logP was determined as 0.56. `CN(C)c1ccc(/C=N/N=C(N)N)cc1` had a logP of 0.28.

In the case of `NC(N)=N/N=C/c1ccc(Oc2ccccc2)cc1`, the logP stood at 1.87. As for `NC(N)=N/N=C/c1ccc([N+](=O)[O-])cc1`, the logP is 0.87. The figure for `NC(N)=N/N=C/c1ccccc1[N+](=O)[O-]` is 0.53; for `NC(N)=N/N=C/c1ccc(Cl)c([N+](=O)[O-])c1` it is 0.53; for `CCOc1ccc(/C=N/N=C(N)N)cc1` it is 0.24. `CC(C)(C)Oc1ccc(/C=N/N=C(N)N)cc1` showed a logP of 1.38. As for `NC(N)=N/N=C/c1cccc([N+](=O)[O-])c1`, the logP worked out at 0.01. On to `COc1ccc(/C=N/N=C(N)N)cc1`, for which the logP came out at 0.29. For `N=C(N)NN=Cc1ccc(-c2ccccc2)cc1`, the logP was determined as 1.49.

Molecule `NC(N)=N/N=C/c1ccc(Br)cc1` came in with a log partition coefficient (logP) of 1.3. `N=C(N)NN=Cc1ccc(Cl)cc1` yielded a logP of 0.96.
